Experimental data as given in patent publication US8846698B2, “Pyrrolo[2,3-d]pyrimidine tropomysin-related kinase inhibitors” (Pfizer Limited, priority 2011, dated 2014).

What was measured:
[1] = target: T1, TRKA (Homo sapiens (Human), UniProt P04629); assay: Isolated TRK enzyme assay (HTRF KinEASE-TK), TRKA; assay type: biochemical; conditions: isolated TRKA enzyme; read-out: TrkA enzyme potency
Target sequence in this assay (P04629 441-796): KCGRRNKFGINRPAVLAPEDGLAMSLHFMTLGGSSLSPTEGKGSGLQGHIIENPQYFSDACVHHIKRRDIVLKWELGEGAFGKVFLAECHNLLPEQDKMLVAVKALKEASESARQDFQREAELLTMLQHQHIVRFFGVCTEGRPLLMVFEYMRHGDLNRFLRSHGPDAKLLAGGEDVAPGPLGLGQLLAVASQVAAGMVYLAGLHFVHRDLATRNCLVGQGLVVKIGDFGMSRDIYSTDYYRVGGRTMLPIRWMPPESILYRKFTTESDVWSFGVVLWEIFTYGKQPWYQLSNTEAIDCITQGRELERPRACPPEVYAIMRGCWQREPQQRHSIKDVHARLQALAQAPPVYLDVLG

[2] = target: MDR1 (Homo sapiens (Human), UniProt P08183); assay: MDCK-MDR1 assay (in vitro brain penetration); assay type: in vitro ADME; conditions: for Papp B→A / Papp A→B: human; for Papp B→A: MDCK-MDR1, MDCK-MDR1, B to A, read-out: MDCK MDR1 Papp BA; for Papp A→B / MDCK MDR1 Papp AB: MDCK-MDR1, A to B; for Papp A→B: read-out: MDCK MDR1 Papp AB; for MDCK MDR1 Papp BA: MDCK-MDR1, B to A
From the text: MDCK-MDR1: MDCK-MDR1 data were collected according to the method described in “Are MDCK Cells Transfected with the Human MDR1 Gene a Good Model of the Human Intestinal Mucosa?”
http://www.springerlink.com/content/qfhqlqbr4fnp3 khf/fulltext.pdf

[3] = target: T1, TRKA; assay: Cell based DiscoveRx PathHunter antagonist assay, TRKA cell line; conditions: read-out: TrkA cell potency
Protocol: (§1) After the Detection Reagent addition, plates are covered and incubated at room temperature for 60 minutes. […] Test compound data are expressed as percentage inhibition defined by HPE and ZPE values for each plate. Percentage inhibition in the presence of test compound is plotted against compound concentration on a log scale to determine an IC50 from the resultant sigmoid curve. Cell Based Assays were carried out using Cell lines from DiscoveRx utilising their PathHunter technology and reagents in an antagonist assay:
(§2) The assays are based upon DiscoveRx's proprietary Enzyme Fragment Complementation (EFC) technology. In the case of the TRK cell lines, the enzyme acceptor (EA) protein is fused to a SH2 protein and the TRK receptor of interest has been tagged with a Prolink tag.
(§3) Upon neurotrophin binding, the TRK receptor becomes phosphorylated, and the tagged SH2 protein binds.
(§4) This means that the IC50 is a good measure of affinity and should be unaffected by concentration neurotrophin stimulant.
(§5) Cryopreserved PathHunter cells are used from either in-house produced batches or bulk batches bought directly from DiscoveRx. Cryopreserved cells are resuscitated, spun 1000 rpm for 4 min to remove freezing media, and resuspended in MEM+0.5% horse serum (both Invitrogen) to 5e^5 cells/ml. The cells are then plated using a Multidrop into Greiner white tissue culture treated plates at 20 ul/well and incubated for 24 h at 37° C., 5% CO2, high humidity. On the day of the assay, the cell plates are allowed to cool to room temperature for 30 min prior to the assay.
(§6) Plates containing 1 ul of serially diluted compound, standard and HPE/ZPE are diluted 1/66 in assay buffer (PBS minus Ca^2+, minus Mg^2+ with 0.05% pluronic F127) using a Wellmate. […] The plates are left at room temperature for a further 2 hours before addition of 10 ul of the DiscoveRx PathHunter detection reagent (made up by adding 1 part Galacton Star, 5 parts Emerald II and 19 parts Cell Assay Buffer as per the manufacturer's instructions).
(§7) After reagent addition, plates are covered and incubated at room temperature for 60 minutes. Luminescence signal is read using an Envision. Test compound data are expressed as percentage inhibition defined by HPE and ZPE values for each plate. Percentage inhibition in the presence of test compound is plotted against compound concentration on a log scale to determine an […] from the resultant sigmoid curve.
Target sequence in this assay (P04629 33-796): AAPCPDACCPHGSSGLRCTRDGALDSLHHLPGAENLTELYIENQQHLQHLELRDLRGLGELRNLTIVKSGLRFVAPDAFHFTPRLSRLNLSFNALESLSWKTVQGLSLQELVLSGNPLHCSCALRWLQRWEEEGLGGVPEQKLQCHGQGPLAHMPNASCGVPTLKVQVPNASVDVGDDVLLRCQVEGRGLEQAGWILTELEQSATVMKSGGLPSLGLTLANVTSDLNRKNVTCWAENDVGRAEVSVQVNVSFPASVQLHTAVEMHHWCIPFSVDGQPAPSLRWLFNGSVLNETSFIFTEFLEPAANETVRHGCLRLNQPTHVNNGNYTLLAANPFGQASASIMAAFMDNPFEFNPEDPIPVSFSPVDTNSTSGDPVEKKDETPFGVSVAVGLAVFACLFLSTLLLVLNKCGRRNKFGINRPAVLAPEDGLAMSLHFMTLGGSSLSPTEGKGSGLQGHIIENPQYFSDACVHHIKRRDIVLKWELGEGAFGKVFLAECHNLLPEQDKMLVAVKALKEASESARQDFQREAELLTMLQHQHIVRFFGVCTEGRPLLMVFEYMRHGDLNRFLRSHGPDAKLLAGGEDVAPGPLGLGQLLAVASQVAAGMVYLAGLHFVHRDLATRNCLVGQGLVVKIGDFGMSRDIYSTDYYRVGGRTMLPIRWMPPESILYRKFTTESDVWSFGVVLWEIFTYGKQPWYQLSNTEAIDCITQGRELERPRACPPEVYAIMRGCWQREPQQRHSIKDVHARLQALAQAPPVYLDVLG

[4] = target: TRKB (Homo sapiens (Human), UniProt Q16620); assay: cell-based; conditions: TrkB cell potency, TRKB PathHunter cell line
Protocol: as §1, §2, §3, §4, §5, §6, §7

Sequence of MDR1 (P08183 whole entry): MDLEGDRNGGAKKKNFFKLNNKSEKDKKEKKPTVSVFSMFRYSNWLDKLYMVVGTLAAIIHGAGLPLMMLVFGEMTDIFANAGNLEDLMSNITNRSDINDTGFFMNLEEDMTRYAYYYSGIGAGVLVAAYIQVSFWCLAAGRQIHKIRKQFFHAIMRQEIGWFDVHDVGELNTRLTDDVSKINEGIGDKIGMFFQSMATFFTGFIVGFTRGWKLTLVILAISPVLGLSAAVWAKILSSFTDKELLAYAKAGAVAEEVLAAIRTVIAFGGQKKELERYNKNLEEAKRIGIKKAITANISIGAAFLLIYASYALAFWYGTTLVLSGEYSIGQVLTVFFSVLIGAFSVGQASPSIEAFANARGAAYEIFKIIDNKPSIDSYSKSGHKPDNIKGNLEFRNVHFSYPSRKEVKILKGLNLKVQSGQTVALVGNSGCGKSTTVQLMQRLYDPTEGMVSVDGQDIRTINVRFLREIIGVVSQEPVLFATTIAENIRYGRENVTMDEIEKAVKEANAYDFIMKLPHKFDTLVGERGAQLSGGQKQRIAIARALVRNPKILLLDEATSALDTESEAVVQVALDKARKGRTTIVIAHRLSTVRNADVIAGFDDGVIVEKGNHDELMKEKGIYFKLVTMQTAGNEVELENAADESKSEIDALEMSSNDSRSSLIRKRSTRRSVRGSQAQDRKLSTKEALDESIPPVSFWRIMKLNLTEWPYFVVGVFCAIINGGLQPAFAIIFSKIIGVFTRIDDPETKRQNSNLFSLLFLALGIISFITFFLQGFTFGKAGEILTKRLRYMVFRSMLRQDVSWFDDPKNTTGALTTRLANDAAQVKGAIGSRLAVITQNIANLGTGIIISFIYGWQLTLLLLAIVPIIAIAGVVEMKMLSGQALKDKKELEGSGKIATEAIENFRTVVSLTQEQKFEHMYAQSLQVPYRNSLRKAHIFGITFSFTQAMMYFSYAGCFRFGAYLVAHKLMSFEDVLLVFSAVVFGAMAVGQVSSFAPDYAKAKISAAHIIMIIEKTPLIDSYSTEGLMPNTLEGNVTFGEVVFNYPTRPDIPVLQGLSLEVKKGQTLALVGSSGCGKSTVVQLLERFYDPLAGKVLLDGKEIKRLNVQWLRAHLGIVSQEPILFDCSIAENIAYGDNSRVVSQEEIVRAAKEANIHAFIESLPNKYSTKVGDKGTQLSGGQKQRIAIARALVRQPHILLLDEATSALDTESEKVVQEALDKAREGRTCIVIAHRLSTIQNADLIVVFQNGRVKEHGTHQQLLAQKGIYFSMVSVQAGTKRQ
Sequence of TRKB (Q16620 32-822 limits assumed): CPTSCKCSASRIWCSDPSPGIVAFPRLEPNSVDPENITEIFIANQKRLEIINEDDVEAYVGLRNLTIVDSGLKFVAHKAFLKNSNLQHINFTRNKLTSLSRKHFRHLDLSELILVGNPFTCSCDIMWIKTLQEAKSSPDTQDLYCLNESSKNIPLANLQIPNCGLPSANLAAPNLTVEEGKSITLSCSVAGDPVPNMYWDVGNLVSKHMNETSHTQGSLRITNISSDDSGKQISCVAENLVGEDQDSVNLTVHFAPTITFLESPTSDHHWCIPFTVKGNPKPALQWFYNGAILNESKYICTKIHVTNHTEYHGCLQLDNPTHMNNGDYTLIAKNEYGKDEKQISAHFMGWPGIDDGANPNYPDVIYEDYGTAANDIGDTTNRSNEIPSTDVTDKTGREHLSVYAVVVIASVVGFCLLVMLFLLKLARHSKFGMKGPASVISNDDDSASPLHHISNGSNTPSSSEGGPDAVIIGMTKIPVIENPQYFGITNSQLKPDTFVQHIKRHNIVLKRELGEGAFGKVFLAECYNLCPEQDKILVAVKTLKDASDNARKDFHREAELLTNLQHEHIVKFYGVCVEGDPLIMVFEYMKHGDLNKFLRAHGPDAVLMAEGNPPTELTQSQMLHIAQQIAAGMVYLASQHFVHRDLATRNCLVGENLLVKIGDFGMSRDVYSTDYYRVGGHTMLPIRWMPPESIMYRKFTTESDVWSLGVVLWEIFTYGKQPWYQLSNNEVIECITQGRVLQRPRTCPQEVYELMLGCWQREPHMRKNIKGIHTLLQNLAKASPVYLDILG

| Structure (SMILES) | IC50 [1] [nM] | Papp B→A [2] [×10⁻⁶ cm/s] | Papp A→B [2] [×10⁻⁶ cm/s] | IC50 [3] [nM] | IC50 [4] [nM] | MDCK MDR1 Papp AB [2] [×10⁻⁶ cm/s] | MDCK MDR1 Papp BA [2] [×10⁻⁶ cm/s] |
| --- | --- | --- | --- | --- | --- | --- | --- |
| C[C@H](CO)n1cc(C(=O)c2cncc(NC(=O)Cn3cc(C(F)(F)F)nn3)c2)c2cncnc21 [Example 21, N-[5-({7-[(1R)-2-hydroxy-1-methylethyl]-7H-pyrrolo[2,3-d]pyrimidin-5-yl}carbonyl)pyridin-3-yl]-2-[4-(trifluoromethyl)-1H-1,2,3-triazol-1-yl]acetamide] | 71 | 1.3 | < 1 | 5740 | 1770 | – | – |
| CC(CO)n1cc(C(=O)c2cncc(NC(=O)Cn3cc(C(F)(F)F)nn3)c2)c2cnc(N)nc21 (single isomer, unassigned) [Example 45, N-(5-{[2-amino-7-(2-hydroxy-1-methylethyl)-7H-pyrrolo[2,3-d]pyrimidin-5-yl]carbonyl}pyridin-3-yl)-2-[4-(trifluoromethyl)-1H-1,2,3-triazol-1-yl]acetamide] | 25 | – | – | > 8660 | 3790 | <1 | <1 |
| CC(CO)n1cc(C(=O)c2cncc(NC(=O)Cn3ccc(C(F)(F)F)n3)c2)c2cnc(N)nc21 (single isomer, unassigned) [Example 38, N-(5-{[2-amino-7-(2-hydroxy-1-methylethyl)-7H-pyrrolo[2,3-d]pyrimidin-5-yl]carbonyl}pyridin-3-yl)-2-[3-(trifluoromethyl)-1H-pyrazol-1-yl]acetamide] | 7.2 | 2.1 | < 1 | 1060 | 589 | – | – |
| CC(CO)n1cc(C(=O)c2cncc(NC(=O)Cc3ccc(Cl)cn3)c2)c2cnc(N)nc21 (single isomer, unassigned) [Example 41, N-(5-{[2-amino-7-(2-hydroxy-1-methylethyl)-7H-pyrrolo[2,3-d]pyrimidin-5-yl]carbonyl}pyridin-3-yl)-2-(5-chloropyridin-2-yl)acetamide] | 7.6 | – | – | 203 | 70 | <1 | 6.3 |
| CC(C)(CO)n1cc(C(=O)c2cncc(NC(=O)Cn3cc(C(F)(F)F)nn3)c2)c2cnc(N)nc21 [Example 54, N-(5-{[2-Amino-7-(2-hydroxy-1,1-dimethylethyl)-7H-pyrrolo[2,3-d]pyrimidin-5-yl]carbonyl}pyridin-3-yl)-2-[4-(trifluoromethyl)-1H-1,2,3-triazol-1-yl]acetamide] | 6.7 | 1.3 | < 1 | 368 | 174 | – | – |
| CC(C)(C)n1cc(C(=O)c2cncc(NC(=O)Cn3ccc(C4CC4)n3)c2)c2cncnc21 [Example 3, N-{5-[(7-tert-butyl-7H-pyrrolo[2,3-d]pyrimidin-5-yl)carbonyl]pyridin-3-yl}-2-(3-cyclopropyl-1H-pyrazol-1-yl)acetamide] | 4.1 | 20 | 8.7 | 5.1 | 1.8 | – | – |
| C[C@H](CO)n1cc(C(=O)c2cncc(NC(=O)Cn3cc(C4CC4)nn3)c2)c2cncnc21 [Example 18, 2-(4-cyclopropyl-1H-1,2,3-triazol-1-yl)-N-[5-({7-[(1R)-2-hydroxy-1-methylethyl]-7H-pyrrolo[2,3-d]pyrimidin-5-yl}carbonyl)pyridin-3-yl]acetamide] | 128 | < 1 | < 1 | > 8660 | 5300 | – | – |
| CC(C)(C)n1cc(C(=O)c2cncc(NC(=O)Cc3ccc(Cl)cn3)c2)c2cncnc21 [Example 6, N-{5-[(7-tert-butyl-7H-pyrrolo[2,3-d]pyrimidin-5-yl)carbonyl]pyridin-3-yl}-2-(5-chloropyridin-2-yl)acetamide] | 2.5 | 16 | 6.9 | 2 | 1.3 | – | – |
| C[C@H](CO)n1cc(C(=O)c2cncc(NC(=O)Cc3ccc(Cl)cn3)c2)c2cncnc21 [Example 23, 2-(5-chloropyridin-2-yl)-N-[5-({7-[(1R)-2-hydroxy-1-methylethyl]-7H-pyrrolo[2,3-d]pyrimidin-5-yl}carbonyl)pyridin-3-yl]acetamide] | 26 | 31 | < 1 | 93 | 52 | – | – |
| CC(CO)n1cc(C(=O)c2cncc(NC(=O)Cc3ccc(F)cn3)c2)c2cnc(N)nc21 (single isomer, unassigned) [Example 40, N-(5-{[2-amino-7-(2-hydroxy-1-methylethyl)-7H-pyrrolo[2,3-d]pyrimidin-5-yl]carbonyl}pyridin-3-yl)-2-(5-fluoropyridin-2-yl)acetamide] | 67 | 2.4 | < 1 | 2580 | 506 | – | – |
| CC(C)(CO)n1cc(C(=O)c2cncc(NC(=O)Cn3cc(C4CC4)nn3)c2)c2cncnc21 [Example 31, 2-(4-cyclopropyl-1H-1,2,3-triazol-1-yl)-N-(5-{[7-(2-hydroxy-1,1-dimethylethyl)-7H-pyrrolo[2,3-d]pyrimidin-5-yl]carbonyl}pyridin-3-yl)acetamide] | 18 | 2.6 | < 1 | 401 | 198 | – | – |
| CC(CO)n1cc(C(=O)c2cncc(NC(=O)Cn3cc(C(F)(F)F)nn3)c2)c2cnc(N)nc21 (single isomer, unassigned) [Example 39, N-(5-{[2-amino-7-(2-hydroxy-1-methylethyl)-7H-pyrrolo[2,3-d]pyrimidin-5-yl]carbonyl}pyridin-3-yl)-2-[4-(trifluoromethyl)-1H-1,2,3-triazol-1-yl]acetamide] | 24 | < 1 | < 1 | > 8660 | 4710 | – | – |
| C[C@H](CO)n1cc(C(=O)c2cncc(NC(=O)Cn3ccc(C(F)(F)F)n3)c2)c2cncnc21 [Example 22, N-[5-({7-[(1R)-2-hydroxy-1-methylethyl]-7H-pyrrolo[2,3-d]pyrimidin-5-yl}carbonyl)pyridin-3-yl]-2-[3-(trifluoromethyl)-1H-pyrazol-1-yl]acetamide] | 25 | 6.9 | < 1 | 596 | 190 | – | – |
| CC(C)(C)n1cc(C(=O)c2cncc(NC(=O)Cc3ccc(F)cn3)c2)c2cncnc21 [Example 1, N-{5-[(7-tert-Butyl-7H-pyrrolo[2,3-d]pyrimidin-5-yl)carbonyl]pyridin-3-yl}-2-(5-fluoropyridin-2-yl)acetamide] | 3.7 | 14 | 5.5 | 9.5 | 1.5 | – | – |
| CC(CO)n1cc(C(=O)c2cncc(NC(=O)Cn3ccc(C(F)(F)F)n3)c2)c2cnc(N)nc21 (single isomer, unassigned) [Example 44, N-(5-{[2-amino-7-(2-hydroxy-1-methylethyl)-7H-pyrrolo[2,3-d]pyrimidin-5-yl]carbonyl}pyridin-3-yl)-2-[3-(trifluoromethyl)-1H-pyrazol-1-yl]acetamide] | 12 | – | – | 996 | 554 | <1 | 1.6 |
